Assay [1] deals with T1, human WSX-1, human CNTF receptor and human gp130 overexpressed in F11 cells (Homo sapiens, UniProt Q6UWB1).
T1 construct: His; V5 (C); expressed in transfected cells; host or cells: F11 cells
T1 sequence (Q6UWB1 33-636): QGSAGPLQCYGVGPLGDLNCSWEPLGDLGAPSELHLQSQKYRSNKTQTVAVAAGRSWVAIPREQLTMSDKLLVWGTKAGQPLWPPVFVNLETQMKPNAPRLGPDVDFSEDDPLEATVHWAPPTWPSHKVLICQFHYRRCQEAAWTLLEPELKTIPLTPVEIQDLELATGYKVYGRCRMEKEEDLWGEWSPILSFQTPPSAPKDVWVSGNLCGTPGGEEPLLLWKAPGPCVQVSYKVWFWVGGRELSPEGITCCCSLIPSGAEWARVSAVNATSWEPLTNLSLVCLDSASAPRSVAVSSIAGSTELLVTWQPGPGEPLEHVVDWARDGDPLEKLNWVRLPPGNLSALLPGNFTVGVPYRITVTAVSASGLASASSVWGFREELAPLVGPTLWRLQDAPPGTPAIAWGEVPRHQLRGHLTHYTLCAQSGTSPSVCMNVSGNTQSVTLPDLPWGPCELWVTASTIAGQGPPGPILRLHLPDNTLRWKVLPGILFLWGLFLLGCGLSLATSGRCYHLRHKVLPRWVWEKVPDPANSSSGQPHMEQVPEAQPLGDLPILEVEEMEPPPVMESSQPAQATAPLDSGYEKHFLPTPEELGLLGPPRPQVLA
T1 sequence (P40189 23-918 partner): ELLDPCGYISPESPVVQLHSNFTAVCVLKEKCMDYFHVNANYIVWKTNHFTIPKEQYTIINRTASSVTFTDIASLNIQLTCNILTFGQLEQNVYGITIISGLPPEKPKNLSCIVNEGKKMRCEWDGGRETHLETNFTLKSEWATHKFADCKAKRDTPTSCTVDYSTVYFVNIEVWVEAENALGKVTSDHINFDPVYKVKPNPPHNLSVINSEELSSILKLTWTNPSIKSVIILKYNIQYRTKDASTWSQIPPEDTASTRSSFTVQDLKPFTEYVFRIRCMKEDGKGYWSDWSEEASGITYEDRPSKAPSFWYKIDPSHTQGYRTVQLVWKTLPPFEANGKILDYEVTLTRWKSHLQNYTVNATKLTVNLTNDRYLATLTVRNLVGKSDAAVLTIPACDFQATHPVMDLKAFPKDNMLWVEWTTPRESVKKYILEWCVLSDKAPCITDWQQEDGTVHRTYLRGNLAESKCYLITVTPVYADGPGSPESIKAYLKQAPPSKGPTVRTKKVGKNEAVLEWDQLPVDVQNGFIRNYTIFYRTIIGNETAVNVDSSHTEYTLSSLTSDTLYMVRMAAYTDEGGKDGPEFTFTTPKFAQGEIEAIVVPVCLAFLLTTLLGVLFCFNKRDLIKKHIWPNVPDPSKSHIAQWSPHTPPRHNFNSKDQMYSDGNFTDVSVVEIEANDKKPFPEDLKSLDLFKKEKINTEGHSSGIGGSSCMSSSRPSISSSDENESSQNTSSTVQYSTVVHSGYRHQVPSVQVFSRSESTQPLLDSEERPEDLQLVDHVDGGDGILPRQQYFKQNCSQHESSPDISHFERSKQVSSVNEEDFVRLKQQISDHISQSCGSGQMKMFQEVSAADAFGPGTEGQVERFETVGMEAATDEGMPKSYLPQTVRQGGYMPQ
As to the kind of experiment: Immunofluorescence-based HN binding assay (1) after ectopic overexpression of receptor genes in F11 cells. The settings on record: large amount (10 μM) of non-labeled peptide. The protocol: A) F11 cells were transfected with 0.5 μg of the pEF/BOS vector, pEF-mycHis CREME9, pEF-mycHishuman WSX-1, or pEF-V5-human CNTF-R in association with 0.5 μg of pCAG-human gp130, or transfected with 0.5 μg of pEF-mycHis human WSX-1 and pEF-V5-human CNTF-R and pCAG-human gp130. To keep the total amounts of transfected vectors to be 1.5 μg, an appropriate amount of the pEFBOS vector was added. The graphs show the results of a binding amount of the biotin-labeled HN to each transfected cell by the detection of immunofluorescence reaction. The protein expression by immunoblot analysis is shown below in photos.
B) F11 cells were transfected with 0.5 μg of pEF-myc His human CREME9 or pEF-mycHis human WSX-1 in association with 0.5 μg of pCAG-human gp130. For competition, 10 μM of non-labeled (cold) HNG or HNA was added for some experiments. Fluorescence signals were detected with a laser-scanning, confocal microscope LSM (Carl Zeiss, Germany) (right panels).
F11 cells (7×10^4/well in 6-well plates) were replated into 96-well plates (7×10^3 cells/well) at 24 hrs after transfection with indicated amounts of the plasmids encoding mycHis-WSX or V5-CNTF-R, and with PCAG-human gp130 if required. […] Immunofluorescence intensity was measured (excitation=485 nm, emission=535 nm) with a spectrofluorometer (Wallac1420 ARVOsx Multi Label Counter). […]

Assay [2] relates to neuronal cell death by AD-related insults. The note with it: cited from earlier work.

We go through two molecules from patent US8173771B2, “Humanin receptor or humanin-like polypeptide receptor” (Keio Univeristy, priority 2005, dated 2012).

Peptide text beside a SMILES is read from it.

For the molecule “C8A-Humanin (MAPRGFSALLLLTSEIDLPVKRRA) [HNA]”, in assay [1], the “effect of unlabeled peptide on binding of HN to cells expressing WSX-1 and gp130” value is recorded as “not”. The “HN activity of the mutant” value in assay [2] (negative control) is listed as “null activity”.
In the case of `CC[C@H](C)[C@H](NC(=O)[C@H](CCC(=O)O)NC(=O)CNC(=O)[C@@H](NC(=O)[C@H](CC(C)C)NC(=O)[C@H](CC(C)C)NC(=O)[C@H](CC(C)C)NC(=O)[C@H](CC(C)C)NC(=O)[C@H](CS)NC(=O)[C@H](CO)NC(=O)[C@H](Cc1ccccc1)NC(=O)CNC(=O)[C@H](CCCNC(=N)N)NC(=O)[C@@H]1CCCN1C(=O)[C@H](C)NC(=O)[C@@H](N)CCSC)[C@@H](C)O)C(=O)N[C@@H](CC(=O)O)C(=O)N[C@@H](CC(C)C)C(=O)N1CCC[C@H]1C(=O)N[C@H](C(=O)N[C@@H](CCCCN)C(=O)N[C@@H](CCCNC(=N)N)C(=O)N[C@@H](CCCNC(=N)N)C(=O)N[C@@H](C)C(=O)O)C(C)C` [HNG, S14 G-Humanin] (H-MAPRGFSCLLLLTGEIDLPVKRRA-OH; N-terminus and C-terminus assumed), in assay [1], the “effect of unlabeled peptide on binding of HN to cells expressing WSX-1 and gp130” value is given as “nullified”. In assay [2], the “potency relative to HN” value is 1000 fold.
